Measured values published in EP4640676A1, “CRYSTAL FORM OF FLUORINE-SUBSTITUTED INDAZOLE COMPOUND AND USE THEREOF” (Sunshine Lake Pharma Co., Ltd., priority 2022, dated 2024).
Each block holds one compound with its values, some of them ahead of it.

What was measured:
[1] = Crystal form transformation (polymorphic transition); assay type: physicochemical; details: for crystal form transformation: in solvents such as ethanol
Solubility test (HPLC) = assay type: physicochemical; details: figures not given
Procedure: The solubility of the present invention was determined using an Agilent 1200 High Performance Liquid Chromatograph DAD/VWD detector with an Agilent XDB-C18 model (4.6 x 50 mm, 5 µm). Detection wavelength of 266 nm, flow rate of 1.0 mL/min, the column temperature of 35 °C, mobile phase A: acetonitrile - 0.01 M ammonium acetate = 10:90 (V: V) analysis methods: acetonitrile - mobile phase A= 70:30 (V: V), running time: 10 minutes.

[2] = High-temperature stability test; assay type: physicochemical; details: for Outward: colour
Procedure: (§1) • (1) High-Temperature Test: Place an appropriate amount of the test sample in a flat weighing bottle, spreading it into a thin layer ≤5 mm thick. Store at 60°C ± 2°C for 30 days. Collect samples at 0, 5, 10, and 30 days for analysis according to the key stability test items. Observe any color changes and determine purity by HPLC. • (2) High-Humidity Test: Place an appropriate amount of the test sample from one batch in a flat weighing bottle, spreading it into a thin layer ≤5 mm thick. Store at 25°C and 90% ± 5% relative humidity (RH) for 30 days. Collect samples at 0, 5, 10, and 30 days for analysis according to the key stability test items. Observe any color changes and determine purity by HPLC. • (3) Light-Exposure Test: Expose the sample to visible light (4500 lx ± 500 lx) and UV light (energy ≥0.7 W·h/m^2) for 30 days. Collect samples at 0, 5, 10, 15, and 30 days for analysis according to the key stability test items. Observe any color changes and determine purity by HPLC. • (4) Accelerated Test: Package an appropriate amount of the test sample from one batch in single-layer PE with aluminum foil. Store at 40°C ± 2°C / 75% ± 5% RH for […]. Collect samples at 0, 1, 2, 3, and 6 months for analysis according to the key stability test items. Observe any color changes and determine purity by HPLC.

[3] = Accelerated stability test; assay type: physicochemical; details: 40°C ± 2°C / 75% ± 5% RH, 6 month
[4] = Pharmacokinetics test, oral capsules; assay type: in vivo; details: male Beagle dogs, 5 mg/kg, figures not given
Procedure: Male Beagle dogs of 8-12 kg were divided into 3 groups, 3 dogs in each group, and capsules containing test samples were orally administered at a dose of 5 mg/kg, and blood was collected at time points of 0.25, 0.5, 1.0, 2.0, 4.0, 6.0, 8.0 and 24 h. Standard curve was plotted based on concentrations of the samples in a suitable range, the concentration of the test sample in the plasma sample was measured and quantified by AB SCIEX API4000-type LC-MS / MS at MRM mode. Pharmacokinetic parameters were calculated according to drug concentration -time curve using a noncompartmental method by WinNonLin 6.3 software.

[5] = High-humidity stability test; assay type: physicochemical; details: 25°C, 90% ± 5% RH, 30 day; for Outward: colour
Procedure: as §1

[6] = Light-exposure stability test; assay type: physicochemical; details: 30 day; for Outward: colour
Procedure: as §1

[7] = Accelerated stability test; assay type: physicochemical; details: 40°C ± 2°C / 75% ± 5% RH; for Outward: colour
Procedure: as §1

[8] = Hygroscopicity test by dynamic vapor sorption (DVS); assay type: physicochemical
Procedure: The hygroscopicity of the present invention was determined using a DVS INT-Std dynamic vapor and gas sorption analyzer from Surface Measurement Systems Ltd. (UK) with the following parameters: humidity test range: 0%-95%, gas flow: 200 mL/min, temperature: 25°C, test points: one measurement point every 5% humidity increase.
An appropriate amount of the test sample was taken, and its hygroscopicity was measured using a dynamic vapor sorption (DVS) instrument. The classification criteria for hygroscopicity characteristics and moisture absorption weight gain (as per Appendix 9103 "Guidelines for Hygroscopicity Testing of Drugs" from the Chinese Pharmacopoeia 2020 Edition, test conditions: 25°C ± 1°C, 80% ± 2% relative humidity (RH)) are described in Table 3 below: Table 3 The description of the hygroscopicity feature and the definition of the hygroscopicity gain

[9] = 0 day, common start value of the high-temperature, high-humidity and light-exposure tests, HPLC
[10] = 0 day, common start value of the three tests
[11] = High-Temperature, 60°C ± 2°C, 30 day

crystal form transformation [1]: transform into Crystal form II
Structure (SMILES): COC(=O)Nc1c(N)nc(-c2nn(Cc3ccccc3F)c3c(F)cccc23)nc1N [Crystal Form I, methyl (4,6-diamino-2-(7-fluoro-1-(2-fluorobenzyl)-1H-indazol-3-yl)pyrimidin-5-yl)carbamate]

solubility (Solubility test (HPLC)): good solubility
Purity (%) [2, 9]: 99.97%
Outward [2, 10]: Off-white
Outward [2, 11]: Off-white
stability ([2]; conclusion over various storage conditions (high-temperature, high-humidity, light-exposure and accelerated tests)): excellent stability
remaining at 720 h ([2]; solid storage, High-Temperature, 60°C ± 2°C, 30 day, HPLC, read-out: Purity (%)): 99.9%
Outward ([3]; colour): Off-white
remaining at 4320 h ([3]; solid storage, 75% rh, read-out: Purity (%)): 99.9%
pharmacokinetic properties [4]: excellent pharmacokinetic properties
Outward [5]: Off-white
remaining at 720 h ([5]; solid storage, 90% rh, HPLC, read-out: Purity (%)): 100%
Outward [6]: Pale yellow
remaining at 720 h ([6]; solid storage, light exposure, visible light 4500 lx ± 500 lx and UV light, HPLC, read-out: Purity (%)): 99.9%
Purity (%) ([7]; 0 day): 99.96%
Outward ([7]; 0 day): Off-white
Outward ([7]; 1 month): Off-white
Outward ([7]; 2 month): Off-white
Outward ([7]; 3 month): Off-white
remaining at 720 h ([7]; solid storage, 75% rh, 1 month, read-out: Purity (%)): 100%
remaining at 1440 h ([7]; solid storage, 75% rh, 2 month, read-out: Purity (%)): 100%
remaining at 2160 h ([7]; solid storage, 75% rh, 3 month, read-out: Purity (%)): 100%
Weight Gain at 60% RH (%) ([8]; DVS, 25°C, 60% RH): 0.02%
Weight Gain at 80% RH (%) ([8]; DVS, 25°C, 80% RH): 0.05%
Weight Gain at 95% RH (%) ([8]; DVS, 25°C, 95% RH): 0.18%
the hygroscopicity feature ([8]; classification per Chinese Pharmacopoeia 2020, 25°C ± 1°C, 80% ± 2% RH): no or negligible hygroscopicity
deliquescence ([8]; under high humidity conditions): not prone to deliquescence
stability of the crystal structure ([1]; in contrast to the other crystal forms): less prone to polymorphic transition
Structure (SMILES): COC(=O)Nc1c(N)nc(-c2nn(Cc3ccccc3F)c3c(F)cccc23)nc1N [Crystal Form II, methyl (4,6-diamino-2-(7-fluoro-1-(2-fluorobenzyl)-1H-indazol-3-yl)pyrimidin-5-yl)carbamate]

Purity (%) [2, 9]: 99.52%
Outward [2, 10]: Off-white
Purity (%) ([2]; High-Temperature, 60°C ± 2°C, 30 day, HPLC, 43200 min): 99.47%
Outward [2, 11]: Off-white
Purity (%) ([5]; HPLC, 43200 min): 99.51%
Outward [5]: Off-white
Outward [6]: Pale yellow
Purity (%) ([6]; visible light 4500 lx ± 500 lx and UV light, HPLC, 43200 min): 99.36%
crystal form transformation [1]: transform into Crystal form II
polymorphic transition ([1]; under high temperature conditions): undergoes polymorphic transition
Structure (SMILES): COC(=O)Nc1c(N)nc(-c2nn(Cc3ccccc3F)c3c(F)cccc23)nc1N [Crystal Form V, methyl (4,6-diamino-2-(7-fluoro-1-(2-fluorobenzyl)-1H-indazol-3-yl)pyrimidin-5-yl)carbamate]
